Columns and labels:
Assay type in all cases: cell-based
HCT116 = assay: Cancer cell panel, cell viability (resazurin): Colon, HCT116; settings: 72 hours, labelled drug combined with Example 3
MOLT4 = assay: Cancer cell panel, cell viability (resazurin): Leukemia, MOLT4; settings: 72 hours, labelled drug combined with Example 3
BxPC3 = assay: Cancer cell panel, cell viability (resazurin): Pancreatic, BxPC3; settings: 72 hours, labelled drug combined with Example 3
MeWO = assay: Cancer cell panel, cell viability (resazurin): Melanoma, MeWO; settings: 72 hours, labelled drug combined with Example 3
SK-MEL-3 = assay: Cancer cell panel, cell viability (resazurin): Melanoma, SK-MEL-3; settings: SK-MEL-3 (Melanoma), 72 hours; labelled drug combined with Example 3
Procedure: (§1) Cells were plated in 96-well plates and treated for 72 hours with a serially diluted CK2 inhibitor or anti-cancer drug or their combination. The suspension cell lines were treated right after plating, while the adherent cells were allowed to attach overnight prior to the start of the treatment.
(§2) Cell viability was determined by adding resazurin to cell cultures and measuring fluorescence with a plate reader. Relative cell viability was calculated by dividing the cell viability signal from a test sample by that of a non-treated control. […] Bliss Independence and Highest Single Agent models were used to determine if there is synergy, additivity or antagonism between the CK2 inhibitor and an anti-cancer drug.

H1299 = assay: Cancer cell panel, cell viability (resazurin): NSCLC, H1299; settings: 72 hours, labelled drug combined with Example 3
Procedure: as §1, §2

U266 = assay: Cancer cell panel, cell viability (resazurin): multiple myeloma, U266; settings: 72 hours, labelled drug combined with Example 3
Procedure: as §1, §2

MDA-MB-157 = assay: Cancer cell panel, cell viability (resazurin): Breast, MDA-MB-157; settings: MDA-MB-157 (Breast), 72 hours; labelled drug combined with Example 3
Procedure: as §1, §2

SKOV-3 = assay: Cancer cell panel, cell viability (resazurin): Ovarian, SKOV-3; settings: SKOV-3 (Ovarian), 72 hours; labelled drug combined with Example 3
Procedure: as §1, §2

H1975 = assay: Cancer cell panel, cell viability (resazurin): NSCLC, H1975; settings: 72 hours, labelled drug combined with Example 3
Ramos = assay: Cancer cell panel, cell viability (resazurin): Burkitt's Lymphoma, Ramos; settings: 72 hours, labelled drug combined with Example 3
Procedure: as §1, §2

DLD-1 = assay: Cancer cell panel, cell viability (resazurin): Colon, DLD-1; settings: DLD-1 (Colon), 72 hours; labelled drug combined with Example 3
BT-474 = assay: Cancer cell panel, cell viability (resazurin): Breast, BT-474; settings: BT-474 (Breast), 72 hours; labelled drug combined with Example 3
Colo205 = assay: Cancer cell panel, cell viability (resazurin): Colon, Colo205; settings: 72 hours, labelled drug combined with Example 3
NAMALWA = assay: Cancer cell panel, cell viability (resazurin): Burkitt's Lymphoma, NAMALWA; settings: 72 hours, labelled drug combined with Example 3
Procedure: as §1, §2

RPMI8226 = assay: Cancer cell panel, cell viability (resazurin): multiple myeloma, RPMI8226; settings: 72 hours, labelled drug combined with Example 3
Procedure: as §1, §2

HL60 = assay: Cancer cell panel, cell viability (resazurin): Leukemia, HL60; settings: 72 hours, labelled drug combined with Example 3
Procedure: as §1, §2

K562 = assay: Cancer cell panel, cell viability (resazurin): Leukemia, K562; settings: 72 hours, labelled drug combined with Example 3
Procedure: as §1, §2

A375 = assay: Cancer cell panel, cell viability (resazurin): Melanoma, A375; settings: 72 hours, labelled drug combined with Example 3
Procedure: as §1, §2

A549 = assay: Cancer cell panel, cell viability (resazurin): NSCLC, A549; settings: 72 hours, labelled drug combined with Example 3
Procedure: as §1, §2

786-O = assay: Cancer cell panel, cell viability (resazurin): Renal, 786-O; settings: 786-O (Renal), 72 hours; labelled drug combined with Example 3
WM-115 = assay: Cancer cell panel, cell viability (resazurin): Melanoma, WM-115; settings: WM-115 (Melanoma), 72 hours; labelled drug combined with Example 3
Procedure: as §1, §2

LnCap = assay: Cancer cell panel, cell viability (resazurin): Prostate, LnCap; settings: 72 hours, labelled drug combined with Example 3
Procedure: as §1, §2

Caov-3 = assay: Cancer cell panel, cell viability (resazurin): Ovarian, Caov-3; settings: Caov-3 (Ovarian), 72 hours; labelled drug combined with Example 3
Procedure: as §1, §2

Daudi = assay: Cancer cell panel, cell viability (resazurin): Burkitt's Lymphoma, Daudi; settings: 72 hours, labelled drug combined with Example 3
Procedure: as §1, §2

Raji = assay: Cancer cell panel, cell viability (resazurin): Burkitt's Lymphoma, Raji; settings: 72 hours, labelled drug combined with Example 3
ZR-75-1 = assay: Cancer cell panel, cell viability (resazurin): Breast, ZR-75-1; settings: ZR-75-1 (Breast), 72 hours; labelled drug combined with Example 3
Procedure: as §1, §2

H460 = assay: Cancer cell panel, cell viability (resazurin): NSCLC, H460; settings: 72 hours, labelled drug combined with Example 3
Procedure: as §1, §2

H23 = assay: Cancer cell panel, cell viability (resazurin): NSCLC, H23; settings: 72 hours, labelled drug combined with Example 3
Procedure: as §1, §2

SK-MEL-24 = assay: Cancer cell panel, cell viability (resazurin): Melanoma, SK-MEL-24; settings: SK-MEL-24 (Melanoma), 72 hours; labelled drug combined with Example 3
Procedure: as §1, §2

LoVo = assay: Cancer cell panel, cell viability (resazurin): Colon, LoVo; settings: 72 hours, labelled drug combined with Example 3
Procedure: as §1, §2

CC[C@]1(O)C[C@@H]2CN(CCc3c([nH]c4ccccc34)[C@@](C(=O)OC)(c3cc4c(cc3OC)N(C)[C@H]3[C@@](O)(C(=O)OC)[C@H](OC(C)=O)[C@]5(CC)C=CCN6CC[C@]43[C@@H]65)C2)C1 [Vinblastine, vinblastine]
synergy, additivity or antagonism of the combination of Example 3 with the anti-cancer drug (HCT116): + (Additive relative to each agent alone (CI = 0.9-1 by Bliss Independence Model and <0.9 by Highest Single Agent Model)) | synergy, additivity or antagonism of the combination of Example 3 with the anti-cancer drug (MOLT4): − (Slightly antagonistic relative to each agent alone (CI = 1.1-1.2 by Highest Single Agent Model)) | synergy, additivity or antagonism of the combination of Example 3 with the anti-cancer drug (BxPC3): + + + (Synergy relative to each agent alone (CI = 0.4-0.74 by Bliss Independence Model)) | synergy, additivity or antagonism of the combination of Example 3 with the anti-cancer drug (MeWO): + (Additive relative to each agent alone (CI = 0.9-1 by Bliss Independence Model and <0.9 by Highest Single Agent Model)) | synergy, additivity or antagonism of the combination of Example 3 with the anti-cancer drug (SK-MEL-3): + (Additive relative to each agent alone (CI = 0.9-1 by Bliss Independence Model and <0.9 by Highest Single Agent Model)) | synergy, additivity or antagonism of the combination of Example 3 with the anti-cancer drug (H1299): + (Additive relative to each agent alone (CI = 0.9-1 by Bliss Independence Model and <0.9 by Highest Single Agent Model)) | synergy, additivity or antagonism of the combination of Example 3 with the anti-cancer drug (U266): + (Additive relative to each agent alone (CI = 0.9-1 by Bliss Independence Model and <0.9 by Highest Single Agent Model)) | synergy, additivity or antagonism of the combination of Example 3 with the anti-cancer drug (MDA-MB-157): + + (Slight synergy relative to each agent alone (CI = 0.75-0.9 by Bliss Independence Model)) | synergy, additivity or antagonism of the combination of Example 3 with the anti-cancer drug (SKOV-3): + (Additive relative to each agent alone (CI = 0.9-1 by Bliss Independence Model and <0.9 by Highest Single Agent Model)) | synergy, additivity or antagonism of the combination of Example 3 with the anti-cancer drug (H1975): + (Additive relative to each agent alone (CI = 0.9-1 by Bliss Independence Model and <0.9 by Highest Single Agent Model)) | synergy, additivity or antagonism of the combination of Example 3 with the anti-cancer drug (Ramos): + (Additive relative to each agent alone (CI = 0.9-1 by Bliss Independence Model and <0.9 by Highest Single Agent Model)) | synergy, additivity or antagonism of the combination of Example 3 with the anti-cancer drug (DLD-1): + + + + (Strong synergy relative to each agent alone (CI < 0.4 by Bliss Independence Model)) | synergy, additivity or antagonism of the combination of Example 3 with the anti-cancer drug (BT-474): + (Additive relative to each agent alone (CI = 0.9-1 by Bliss Independence Model and <0.9 by Highest Single Agent Model)) | synergy, additivity or antagonism of the combination of Example 3 with the anti-cancer drug (Colo205): + + + (Synergy relative to each agent alone (CI = 0.4-0.74 by Bliss Independence Model)) | synergy, additivity or antagonism of the combination of Example 3 with the anti-cancer drug (NAMALWA): + (Additive relative to each agent alone (CI = 0.9-1 by Bliss Independence Model and <0.9 by Highest Single Agent Model)) | synergy, additivity or antagonism of the combination of Example 3 with the anti-cancer drug (RPMI8226): + (Additive relative to each agent alone (CI = 0.9-1 by Bliss Independence Model and <0.9 by Highest Single Agent Model)) | synergy, additivity or antagonism of the combination of Example 3 with the anti-cancer drug (HL60): + + (Slight synergy relative to each agent alone (CI = 0.75-0.9 by Bliss Independence Model)) | synergy, additivity or antagonism of the combination of Example 3 with the anti-cancer drug (K562): + (Additive relative to each agent alone (CI = 0.9-1 by Bliss Independence Model and <0.9 by Highest Single Agent Model)) | synergy, additivity or antagonism of the combination of Example 3 with the anti-cancer drug (A375): + (Additive relative to each agent alone (CI = 0.9-1 by Bliss Independence Model and <0.9 by Highest Single Agent Model)) | synergy, additivity or antagonism of the combination of Example 3 with the anti-cancer drug (A549): + + + (Synergy relative to each agent alone (CI = 0.4-0.74 by Bliss Independence Model)) | synergy, additivity or antagonism of the combination of Example 3 with the anti-cancer drug (786-O): + + + (Synergy relative to each agent alone (CI = 0.4-0.74 by Bliss Independence Model)) | synergy, additivity or antagonism of the combination of Example 3 with the anti-cancer drug (WM-115): + (Additive relative to each agent alone (CI = 0.9-1 by Bliss Independence Model and <0.9 by Highest Single Agent Model)) | synergy, additivity or antagonism of the combination of Example 3 with the anti-cancer drug (LnCap): + (Additive relative to each agent alone (CI = 0.9-1 by Bliss Independence Model and <0.9 by Highest Single Agent Model)) | synergy, additivity or antagonism of the combination of Example 3 with the anti-cancer drug (Caov-3): + (Additive relative to each agent alone (CI = 0.9-1 by Bliss Independence Model and <0.9 by Highest Single Agent Model)) | synergy, additivity or antagonism of the combination of Example 3 with the anti-cancer drug (Daudi): + (Additive relative to each agent alone (CI = 0.9-1 by Bliss Independence Model and <0.9 by Highest Single Agent Model)) | synergy, additivity or antagonism of the combination of Example 3 with the anti-cancer drug (Raji): + (Additive relative to each agent alone (CI = 0.9-1 by Bliss Independence Model and <0.9 by Highest Single Agent Model)) | synergy, additivity or antagonism of the combination of Example 3 with the anti-cancer drug (ZR-75-1): + (Additive relative to each agent alone (CI = 0.9-1 by Bliss Independence Model and <0.9 by Highest Single Agent Model)) | synergy, additivity or antagonism of the combination of Example 3 with the anti-cancer drug (H460): + (Additive relative to each agent alone (CI = 0.9-1 by Bliss Independence Model and <0.9 by Highest Single Agent Model)) | synergy, additivity or antagonism of the combination of Example 3 with the anti-cancer drug (H23): + + (Slight synergy relative to each agent alone (CI = 0.75-0.9 by Bliss Independence Model)) | synergy, additivity or antagonism of the combination of Example 3 with the anti-cancer drug (SK-MEL-24): + (Additive relative to each agent alone (CI = 0.9-1 by Bliss Independence Model and <0.9 by Highest Single Agent Model)) | synergy, additivity or antagonism of the combination of Example 3 with the anti-cancer drug (LoVo): + (Additive relative to each agent alone (CI = 0.9-1 by Bliss Independence Model and <0.9 by Highest Single Agent Model))

From patent US10227344B2, “CK2 inhibitors, compositions and methods thereof” (Polaris Pharmaceuticals, Inc., priority 2016, dated 2019)
